Where “and” joins values, the source holds several entries; their conditions need not be identical. Equal entries are not always repeated.
Columns and labels:
[1] = Incubation of IX and 8-PN with Eubacterium limosum for 13 days; format: in vitro ADME; conditions: Eubacterium limosum, Eubacterium limosum ATCC 8486 culture; E. limosum, 25 mg/l substrate, 13 days anaerobic; average (stdev) molar percentage
Method: Eubacterium limosum ATCC 8486 and Peptostreptococcus productus ATCC 27340 were obtained from the German Collection of Microorganisms and Cell Cultures (DSMZ, Braunschweig, Germany). E. limosum was incubated for 13 days in Brain Heart Infusion broth (with 0.5 g/l cystein-HCl) with 25 mg/l of IX and 8-PN under anaerobic conditions (Table 2). This strain was able to convert IX into 8-PN. […] This feature is clearly different from the metabolic pathway as observed in liver microsomes wherein 8-PN is extensively further metabolised [Nikolic et al. (2005) J. of Mass Spectrom. 40, 289-299; Nikolic et al. (2004) Drug Metabolism and Disposition 32, 272-279].

E. limosum = test: Selection of 8-PN producing E. limosum by repeated incubations with IX; format: in vitro ADME, Eubacterium limosum; conditions: 6 parallel incubations, 25 mg/l IX, 8 days
Method: Because of the capacity of E. limosum to transform IX into 8-PN, a selection procedure was performed to obtain a strain, capable to quantitatively produce 8-PN. The selection procedure consisted of 6 parallel incubations of E. limosum [cultures from single colonies] with 25 mg/l IX and incubation for 8 days. Next, the culture which produced the highest amount of 8-PN was selected and used as inoculum for the next round of 6 parallel incubations (Table 3). […] This means that, after only three rounds, a strain was selected which converted almost all IX (high mean) and was also stable (low standard deviation).

[2] = test system: selected strain Eubacterium limosum; test: Fed batch fermentation of IX with selected Eubacterium limosum strain; format: in vitro ADME; conditions: fermentor effluent
Method: A fed batch fermentation experiment was designed to use a selected strain Eubacterium limosum as obtained above, to convert methylated prenylflavonoids in a fermentation setting. Fermentation was performed in a Braun Biostat® M fermentor (2 l vessel), filled with 1.5 L Brain Heart Infusion broth (with 0.5 g/l cystein-HCl). Subsequently, the fermentor was sterilized by autoclaving it for 30 min at 121° C. Before inoculation, the fermentor was made anaerobic by flushing the system for 1 h with nitrogen gas. After this, the fermentor was inoculated with a 2-days old E. limosum culture and 25 mg/L IX was added to the fermentation liquid. The fermentation was performed at 37° C. for 2 weeks, without pH control. From day 1 on, three times/day 200 ml anaerobic Brain Heart Infusion broth (with 0.5 g/l cystein-HCl), containing 25 mg/L IX was dosed to the reactor at 10 ml/min and simultaneously […] fermentor content was removed from the system. A 10 ml sample was taken from the effluent, for chemical analysis. This was done at day 0, 1, 2 and afterwards every 2 days. Data were as % conversion (8-PN/(IX+8-PN)). A conversion of 0% (day 0), 43% (day 1) and 100% (day 2 and following days), of IX into 8-PN was obtained.

[3] = test system: intestinal microbial communities PF+ and PF−; test: Simulator of the Human Intestinal Microbial Ecosystem (SHIME) dosed with IX; format: in vitro ADME
Text: The SHIME consists of a succession of five reactors that represent the different parts of the human gastrointestinal tract. The first two reactors (stomach [reactor 1] and small intestine [reactor 2]) are of the fill-and-draw principle to simulate different steps in food uptake and digestion, with peristaltic pumps adding a defined amount of SHIME feed (3 times/day) and pancreatic and bile liquid to the stomach and duodenum compartment and emptying the respective reactors after specified intervals. The last three compartments (resp. ascending [reactor 3], transverse [reactor 4] and descending colon [reactor 5]) are continuously stirred reactors with constant volume and pH control. Retention time and pH of the different vessels were chosen in order to resemble in vivo conditions in the different parts of the gastrointestinal tract. The passage of food in the small intestine was simulated in reactor 2 by the addition of 60 ml artificial pancreatic and bile liquid, pancreatin and NaHCO3. The temperature of the system was kept at 37° C. by a thermostat and the system was kept anaerobic by flushing it with N2 for 15 min every day. Inoculum was prepared from faecal matter as described in De Boever et al. (2000) J. Nutrition 130, 2599-2606. Reactor 3, 4, and 5 were filled with nutritional medium and pH was adjusted to the respective pH range. Finally, 50 ml inoculum was added to the last three reactors.
For the present experiment, two of the above described systems were combined as two completely separate reactors, which are driven by the same pumps (pumps with two pump heads, allowing to dose exactly the same amounts of liquids to both systems), have identical pH and temperature control and which receive the same liquid food. This way, all parameters are perfectly controlled and identical, except for the intestinal microbial communities in the 2 systems which can be introduced separately. In this case we introduced a community which was capable to activate methylated prenylflavonoids (PF+) and one which could not (PF−). After a two-week stabilization period in which normal SHIME feed was dosed, 25 mg/L IX was dosed to the SHIME feed for 4 weeks (day 15-44). In the last two weeks the selected Eubacterium limosum strain of example 2, was also administered to the first colon compartment, to simulate the application of the strain as a probiotic (day 30-44).

[4] = Urinary IX and 8-PN excretion in axenic and Human Flora Associated (HFA) rats; format: in vivo, rat; conditions: 2 mg IX/kg body weight daily
Method: An experiment with axenic and Human Flora Associated (HFA) rats was performed to test the capacity of the selected strain of example 2 to activate methylated prenylflavonoids in vivo. A total of 12 axenic rats were used for the study. When the rats were 5 weeks old, 3 HFA rats were associated by oral gavage with a freshly voided, homogenized fecal culture which has prenylflavonoid demethylating activity. These HFA rats were designated PF+ rats.
At the same time, 3 HFA rats were associated by oral gavage with a freshly voided, homogenized fecal culture without prenylflavonoid demethylating activity. These HFA rats were designated PF− rats. The remaining rats were kept under sterile conditions. All rats were kept in separate, closed collective cages prior to the start of the experiment.
After 3 weeks of stabilization of the microbial cultures inside the rat intestine, a first experiment was started. After moving the rats to individual metabolism cages, 2 mg IX/kg body weight was daily administered to each rat for 5 days and each day 24 h-pooled urine was collected. After 3 days, the urinary IX and 8-PN excretion was quantified. […]
Herein, the 6 axenic rats were associated with the selected E. limosum strain of example 2 for 7 days by daily oral gavage with a log 9 bacterial suspension. […] On day 7, the urinary IX and 8-PN excretion was quantified.

Compound: COc1cc(O)c(CC=C(C)C)c2c1C(=O)C[C@@H](c1ccc(O)cc1)O2 [IX, 5-O-methyl-8-prenylnaringenin]
- recovery at 13 days, 25 mg/l [1]: 51.4%
- Molar % IX to 8-PN conversion, Highest (E. limosum; selection round I): 46.5%
- Molar % IX to 8-PN conversion, Lowest (E. limosum; selection round I): 2% and 2.1%
- Molar % IX to 8-PN conversion, Mean (stdev) (E. limosum; selection round I): 22.5% and 22.5 (19.3) %
- Molar % IX to 8-PN conversion, Highest (E. limosum; selection round II): 79.4%
- Molar % IX to 8-PN conversion, Lowest (E. limosum; selection round II): 24.3%
- Molar % IX to 8-PN conversion, Mean (stdev) (E. limosum; selection round II): 57.9 (19.6) %
- Molar % IX to 8-PN conversion, Lowest (E. limosum; selection round III): 82% and 82.1%
- Molar % IX to 8-PN conversion, Mean (stdev) (E. limosum; selection round III): 90.5% and 90.5 (6.9) %
- % conversion (8-PN/(IX+8-PN)) ([2]; day 0): 0%
- % conversion (8-PN/(IX+8-PN)) ([2]; day 1): 43%
- % conversion (8-PN/(IX+8-PN)) ([2]; day 2 and following days): 100%
- Conversion of IX into 8-PN ([3]; PF+ compartment, after supplementing the E. limosum strain (from day 30)): the activation potential increased
- Conversion of IX into 8-PN ([3]; PF+ compartment, only IX administered (day 15-30)): activation of methoxylated prenylflavonoids was noted in the distal colon parts
- Conversion of IX into 8-PN ([3]; PF− compartment, after supplementing the E. limosum strain (from day 30)): production of the estrogenically active 8-PN was detected in the distal colon part
- Conversion of IX into 8-PN ([3]; PF− compartment, only IX administered (day 15-30)): no conversion occurred
- 24 h-pooled urinary % 8-PN/(IX + 8-PN) excretion, Mean (Stdev) ([4]; PF+ HFA rats): 55.3 (9.1) %
- 24 h-pooled urinary % 8-PN/(IX + 8-PN) excretion, Mean (Stdev) ([4]; PF− HFA rats): 23.6 (10.4) %

— US8709764B2, “Enzymatic demethylation of flavonoids” (Universiteit Gent, priority 2005, dated 2014)
